US12466838B2, “Crystalline form of a multi-tyrosine kinase inhibitor, method of preparation, and use thereof” (Mirati Therapeutics, Inc., priority 2019, dated 2025)
“Also recorded” adds a separate entry of the source. Each block holds one compound with its values, some of them ahead of it.

Key:
[1] = tested on: human xenograft tumor models; settings: multiple human xenograft tumor models in mice; cited from earlier work
[2] = tested on: tyrosine kinases, including RET, CBL, CHR4q12, DDR and Trk; settings: cited from earlier work
[3] = Drying experiments (non-solvent based), solid form by XRPD; assay type: physicochemical; settings: Vacuum oven drying, ~40° C., 2.5
Method: (§1) XRPD patterns were collected with a PANalytical X'Pert PRO MPD diffractometer using an incident beam of Cu radiation produced using an Optix long, fine-focus source. An elliptically graded multilayer mirror was used to focus Cu Kα X-ray radiation through the specimen and onto the detector. Prior to the analysis, a silicon specimen (NIST SRM 640d) was analyzed to verify the observed position of the Si (111) peak is consistent with the NIST-certified position. A specimen of the sample was sandwiched between 3-μm-thick films and analyzed in transmission geometry. A beam-stop, short antiscatter extension, and antiscatter knife edge, were used to minimize the background generated by air. Soller slits for the incident and diffracted beams were used to minimize broadening from axial divergence. Diffraction patterns were collected using a scanning position-sensitive detector (X'Celerator) located 240 mm from the specimen and Data Collector software v. 2.2b.
Limited non-solvent based experiments were conducted with materials generated during the stable form screen and included short term vacuum drying at elevated temperature.

[4] = Slurry interconversion experiments, solid form by XRPD; assay type: physicochemical; settings: slurry of Forms C, D, and H in ethyl acetate
Method: as §1
To investigate the relationship between selected materials produced during screening, limited slurry interconversion experiments were conducted. The experiments were performed by slurring seeds of solids of interest at ambient temperature in two different solvent systems. All materials were vacuum dried prior to the slurry (˜40° C., ˜2.5 hours). Solvent conditions were selected to achieve sufficient solubility of materials tested. […]

[5] = Preliminary physical stability assessment of Form D, XRPD; assay type: physicochemical
Method: as §1, with “2.2b. Preliminary physical stability assessment of Form D was performed. […] The XRPD patterns of the stressed materials show no significant peak shifts compared to the untreated samples. The XRPD pattern of Form D obtained from high water activity slurry is consistent with the pattern of the untreated material. However, small shifts of selected peaks were observed, possibly due to hydration.” for “2.2b.”

Compound: COCCNCc1ccc(-c2cc3nccc(Oc4ccc(NC(=O)C5(C(=O)Nc6ccc(F)cc6)CC5)cc4F)c3s2)nc1 [Compound 1, N-(3-fluoro-4-((2-(5-(((2-methoxyethyl)amino)methyl)pyridin-2-yl)thieno[3,2-b]pyridin-7-yl)oxy)phenyl)-N-(4-fluorophenyl)cyclopropane-1,1-dicarboxamide]
- tumor regression [1]: shows tumor regression
- inhibition of a closely related spectrum of tyrosine kinases [2]: potent inhibition

- XRPD Results after drying [3]: Form H
- relative thermodynamic stability among Forms C, D and H [4]: least thermodynamically stable
Compound: COCCNCc1ccc(-c2cc3nccc(Oc4ccc(NC(=O)C5(C(=O)Nc6ccc(F)cc6)CC5)cc4F)c3s2)nc1 [Form H, N-(3-fluoro-4-((2-(5-(((2-methoxyethyl)amino)methyl)pyridin-2-yl)thieno[3,2-b]pyridin-7-yl)oxy)phenyl)-N-(4-fluorophenyl)cyclopropane-1,1-dicarboxamide]

Compound: COCCNCc1ccc(-c2cc3nccc(Oc4ccc(NC(=O)C5(C(=O)Nc6ccc(F)cc6)CC5)cc4F)c3s2)nc1 [Form D]
- XRPD Results after drying [3]: remained unchanged; also recorded: Form D
- XRPD Results (physical stability) ([5]; Acetone/water (40/60), slurry, RT): Consistent with Form D, slight peak shifts
- XRPD Results (physical stability) ([5]; EtOH/water (40/60), slurry, RT): Consistent with Form D, slight peak shifts
- XRPD Results (physical stability) ([5]; Water, slurry, RT): Consistent with Form D, slight peak shifts
- XRPD Results (physical stability) ([5]; ~43% RH/RT): remained unchanged; also recorded: Consistent with Form D, no significant shifts of peaks
- XRPD Results (physical stability) ([5]; ~75% RH/RT): remained unchanged; also recorded: Consistent with Form D, no significant shifts of peaks

- XRPD Results after drying [3]: Form C
Compound: COCCNCc1ccc(-c2cc3nccc(Oc4ccc(NC(=O)C5(C(=O)Nc6ccc(F)cc6)CC5)cc4F)c3s2)nc1 [Form C, N-(3-fluoro-4-((2-(5-(((2-methoxyethyl)amino)methyl)pyridin-2-yl)thieno[3,2-b]pyridin-7-yl)oxy)phenyl)-N-(4-fluorophenyl)cyclopropane-1,1-dicarboxamide]
